Measurements from the Kinase Knowledgebase extract (Sharma et al. 2016).

What was measured:
[1] = molecular target: CDK2 (human) (UniProt P24941); assay: Enzyme Assay
[2] = molecular target: CDK2 (human) (UniProt P24941); assay: Enzyme Assay; remark: listed apart in the source

With NS(=O)(=O)Cc1cccc(Nc2ncnc(N3CCc4ncsc4C3)n2)c1 the Kd [1] was less than 100 nM and the Kd [2] was less than 100 nM.

In the case of NS(=O)(=O)Cc1cccc(Nc2ncnc(N3CCC[C@@H]3CO)n2)c1, the Kd [1] is reported as greater than 10000 nM.

Work on NS(=O)(=O)Cc1cccc(Nc2ncnc(N3CCc4ccccc43)n2)c1 yielded a Kd [1] of 100 to 1000 nM.

For NS(=O)(=O)Cc1cccc(Nc2ncnc(N3CCc4ncccc4C3)n2)c1, the Kd [1] was 100 to 1000 nM and the Kd [2] was 100 to 1000 nM.

COC[C@@H]1CCCN1c1ncnc(Nc2cccc(CS(N)(=O)=O)c2)n1 showed a Kd [1] greater than 10000 nM.

NS(=O)(=O)Cc1cccc(Nc2ncnc(N3CCCn4nccc43)n2)c1 gave a Kd [1] of less than 100 nM and a Kd [2] of less than 100 nM.

COC[C@H]1CCN1c1ncnc(Nc2cccc(CS(N)(=O)=O)c2)n1 gave a Kd [1] greater than 10000 nM.

NS(=O)(=O)Cc1cccc(Nc2ncnc(N3CCCc4ccccc43)n2)c1 gave a Kd [1] of 100 to 1000 nM.

NS(=O)(=O)Cc1cccc(Nc2ncnc(N3Cc4ccncc4C3)n2)c1 showed a Kd [1] of 100 to 1000 nM.

In the case of NS(=O)(=O)Cc1cccc(Nc2ncnc(N3CCCC3c3ccccc3)n2)c1 (configuration not stated), the Kd [2] is reported as greater than 10000 nM.

In the case of NS(=O)(=O)Cc1cccc(Nc2ncnc(N3CCCCC3)n2)c1, the Kd [1] is reported as greater than 10000 nM and the Kd [2] is reported as greater than 10000 nM.

With COC[C@H]1CCCCN1c1ncnc(Nc2cccc(CS(N)(=O)=O)c2)n1 the Kd [1] was greater than 10000 nM.

Compound NS(=O)(=O)Cc1cccc(Nc2ncnc(N3CCc4nc[nH]c4C3)n2)c1 has a Kd [1] of less than 100 nM.

Work on NS(=O)(=O)Cc1cccc(Nc2ncnc(N3CCC[C@@H]3CN3CCCC3)n2)c1 yielded a Kd [1] greater than 10000 nM.

Compound NS(=O)(=O)Cc1cccc(Nc2ncnc(N3CCC[C@H]3CO)n2)c1 has a Kd [1] greater than 10000 nM.

For CN(C)CCC1CCCCN1c1ncnc(Nc2cccc(CS(N)(=O)=O)c2)n1 (configuration not stated), the Kd [2] was greater than 10000 nM.

NS(=O)(=O)Cc1cccc(Nc2ncnc(N3Cc4cn[nH]c4C3)n2)c1 showed a Kd [2] of 100 to 1000 nM.

For NS(=O)(=O)Cc1cccc(Nc2ncnc(N3CCC[C@@H]3COCc3ccccc3)n2)c1, the Kd [1] was greater than 10000 nM.
